Columns and labels:
[1] = target: T1, a1B-adrenoceptor (Rattus norvegicus, UniProt P15823); test: [3H]-prazosin competition binding, rat spleen membranes; conditions: read-out: Receptor Affinity (pKi) a1B (converted)
T1 construct: The submaxillary glands, spleen, and aorta of rats were separately homogenized; from tissue; host or cells: Wistar rat spleen membranes
T1 sequence (P15823 1-515): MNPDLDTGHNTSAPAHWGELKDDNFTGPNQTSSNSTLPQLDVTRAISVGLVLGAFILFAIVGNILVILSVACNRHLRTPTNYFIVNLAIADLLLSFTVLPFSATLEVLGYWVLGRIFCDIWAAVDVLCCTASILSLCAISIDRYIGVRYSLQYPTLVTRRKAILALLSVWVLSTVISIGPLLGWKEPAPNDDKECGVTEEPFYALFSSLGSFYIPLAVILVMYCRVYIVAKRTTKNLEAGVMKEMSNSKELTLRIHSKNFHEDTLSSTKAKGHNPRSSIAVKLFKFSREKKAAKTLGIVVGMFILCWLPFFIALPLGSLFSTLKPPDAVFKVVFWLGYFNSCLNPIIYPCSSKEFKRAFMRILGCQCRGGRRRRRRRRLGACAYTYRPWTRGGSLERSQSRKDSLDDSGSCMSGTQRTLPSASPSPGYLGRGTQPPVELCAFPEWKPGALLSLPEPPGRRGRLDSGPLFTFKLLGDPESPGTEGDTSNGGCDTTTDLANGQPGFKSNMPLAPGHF
Protocol: Wistar rats were obtained from National Laboratory Animal Breeding and Research Center (Taipei, Taiwan) and housed under a constant temperature and controlled illumination. The submaxillary glands, spleen, and aorta of rats were separately homogenized for 30 seconds with a Kinematica polytron in 20 volumes of ice-cold TE buffer (10 mM Tris HCl, 1 mM EDTA, 0.1 mM ascorbic acid, pH 7.4). The homogenate was filtered under pressure through muslin and the filtrate was centrifuged at 1,000 g for 10 minutes. The supernatant was centrifuged again at 10,000 g for 12 minutes at 4° C. The second supernatant was centrifuged at 30,000 g for 15 minutes at 4° C., and the final pellet was resuspended in the assay buffer (75 mM Tris HCl, 25 mM MgCl2, pH 7.4). Protein content was determined by Bradford's method.
[^3H]-prazosin, KMUP-1 and membranes (200-300 μg) were incubated for 60 minutes at 25° C. with or without the addition of nonspecific binding agents, in a 75 mM Tris HCl buffer with 25 mM MgCl2, making a final volume of 500 μL. In this experiment, non-specific binding was defined by use of 10 μM phentolamine. […] Membrane-bound radioligand trapped in the filters was counted in a Beckman LS6500 scintillation system (Fullerton, Calif.) with an efficiency of 45%. In each experiment, nonspecifically bound radioligand agents were measured by incubating membrane protein. […]

[2] = system: cAMP; test: Determination of cAMP in rat isolated prostate (radioimmunoassay); conditions: for cAMP levels: 1 hour
Protocol: Isolated prostate strips from Wistar rats were prepared to determine prostate levels of cGMP and cAMP. Briefly, prostate strips were respectively incubated with KMUP-1 (10-100 μM), sildenafil (100 μM), and zaprinast (100 μM) in 10 mL Tyrode solution aerated with 95% O2 and 5% CO2 for 1 hour. To examine the possible mechanisms of action of KMUP-1, the rat prostate was pretreated with ODQ (10 μM, sGC inhibitor) and SQ22536 (9-(tetrahydro-2-furanyl)-9H-purin-6-amine, 10 μM, adenylyl cyclase inhibitor) for 30 minutes before KMUP-1 was added. After the incubation, the prostate tissues were extracted with 1 mL of 0.1 N HCl. The extracts were then lyophilized for a further measurement of cyclic GMP or cyclic AMP of each sample, using commercially available radioimmunoassay kits (Amersham Pharmacia Biotech, Buckinghamshire, England).

[3] = system: PZ-HPV-7 human prostatic epithelial cells; test: Cell proliferation, MTT assay; type: cell-based
Protocol: (§1) PZ-HPV-7, a human prostate epithelial cell line derived from normal peripheral zone tissue and transfected with human papillomavirus type 18, was obtained from the American Type Culture Collection (ATCC). Cells were grown in K-SFM medium supplemented with 100 U/mL penicillin, […], streptomycin 5 ng/ml, EGF human recombinant and 50 µg/mL BPE in 75-cm^2 flasks at 37° C. in a humidified atmosphere of […]. The culture medium was renewed every 2 days and cells were sub-cultured every 6 days. For the experiments, cells were seeded in 24-well plates at a density of 1×10^4 cells/well. After 24 hours and 48 hours, when cells were 80% confluent, KMUP-1 (1-100 μM) was added to the 24-well plates. Cell proliferation was measured using MTT assay (3-[4,5-dimethylthiazol-2-yl]-2,5-diphenyl-tetrazolium bromide, Sigma). The trypan blue […] exclusion assay was performed to determine the proportion of living and dead cells in 24 hours and 48 hours after treatment. After 24 hours and 48 hours of treatment with KMUP-1 (1-100 μM), attached cells were collected by trypsinization. Cells were counted in a hemocytometer using equal volume of cell suspension and trypan blue solution (0.2% in PBS).

[4] = system: PZ-HPV-7 human prostatic epithelial cells; test: Trypan blue exclusion assay; type: cell-based; conditions: 1-100 μM, 24 and 48 hours
Protocol: as §1

Cn1c(=O)c2c(ncn2CCN2CCN(c3ccccc3Cl)CC2)n(C)c1=O [KMUP-1, 7-[2-[4-(2-Chlorobenzene)piperazinyl]ethyl]-1,3-dimethyl xanthine]
Ki [1]: 115 nM | cAMP levels ([2]; 10 μM): 1.74±0.51 pmol mg^−1 protein | cAMP levels ([2]; 100 μM): 2.82±0.42 pmol mg^−1 protein | accumulation of cAMP ([2]; KMUP-1 100 μM in the presence of SQ22536 10 μM): 2.16±0.79 pmol mg^−1 protein | cell growth ([3]; 1 μM, 24 hours): 82.00±3.03 % of control | cell growth ([3]; 1 μM, 48 hours): 70.00±2.23 % of control | cell growth ([3]; 10 μM, 24 hours): 80.03±1.52 % of control | cell growth ([3]; 10 μM, 48 hours): 56.00±2.72 % of control | cell growth ([3]; 100 μM, 24 hours): 79.00±1.35 % of control | cell growth ([3]; 100 μM, 48 hours): 47.00±1.8 % of control | PZ-HPV-7 cell growth, Trypan blue assay [4]: dose- and time-dependent inhibition
